Test results published in ChEMBL document CHEMBL3507680, “University of Dundee, Gates Library screen for HepG2 cell viability”.

assay: Human HepG2 cell viability assay in 384 well format; assay type: toxicity, cell-based; design: dose 125 nL, time 70.5 hour; concentration not given beside the values; conditions: HepG2 cells, read-out: Inhibition

Compound	cytotoxicity at 70.5 h
COCc1ccccc1C(=O)NS(=O)(=O)CCCC#N	-3.12%
Cc1cccc(CC(=O)NC2CCN(C(=O)NC(C)(C)C)CC2)c1	12.2%
Cc1cc(CN2CCN(C(C)C(=O)NCc3cccs3)CC2)no1 (stereo not given)	-2.27%
Cc1cnn(CC2CCN(CC(O)CN3CCC(C)CC3)CC2)c1 (stereo not given)	-4.29%
CC(C)NC(=O)CN(C)C(=O)c1c(Br)c2ccccc2n1C	-4.11%
COc1ccc(SC(C)C(=O)N2CCC(NC(=O)C3CC3)CC2)cc1 (stereo not given)	8.09%
Cc1noc(C)c1CN(C)c1nccc(C(F)(F)F)n1	4.31%
O=C(CCn1cncn1)NCC1CCOC1 (stereo not given)	-6.75%
O=C(c1ccc(Oc2cccnc2)cc1)N1CCN(CCO)CC1	-18.5%
Cc1cnc(CN2CCCCC2c2nc(-c3ccccc3)no2)cn1 (stereo not given)	-7.59%
O=C(Nc1cc(Cl)ccc1N1CCCCC1)c1ccccn1	7.77%
Cc1cc(C)cc(OCCNC(=O)C(C)Sc2nncn2C)c1 (stereo not given)	-10.3%
O=C(c1cc(Br)c[nH]1)N1CCN(Cc2ccco2)CC1	5.49%
CC(C)CNC(=O)C[S+]([O-])Cc1csc(C2CCCCC2)n1 (stereo not given)	-13%
CCC(CC(=O)NS(=O)(=O)C(C)C)c1ccccc1 (stereo not given)	11.1%
O=C(Nc1c(N2CCCC2)cccc1N1CCCC1)c1cnsn1	-16%
CC(C)OCc1ccc(CNC(=O)NC2(CO)CCCC2)cc1	-10.3%
CC(C)Oc1cccc(CNC(=O)NC2(CO)CCCC2)c1	-11.2%
Cc1noc(C)c1CN1CCCCC1c1nc(-c2ccccc2)no1 (stereo not given)	-9.69%
COCCN(Cc1ccccn1)C(=O)CC1OCCc2ccsc21 (stereo not given)	-1.83%
CCCc1nn(Cc2csc(CC)n2)c(=O)o1	-4.3%
Cc1cc(C2CCCN2C(=O)COc2ccc(CC#N)cc2)on1 (stereo not given)	-9.16%

Compound	cytotoxicity at 70.5 h
COc1ccc2c(c1)CC(NCc1cccc(OCC(N)=O)c1)CC2 (stereo not given)	-10.5%
Cn1cc(-c2noc(C3(C)CCOCC3)n2)cn1	11.7%
COc1ccc(C2(c3nc(-c4cccnc4)no3)CCOCC2)cc1	34.4%
CC(NC(=O)c1cnccn1)c1nnc2ccccn12 (stereo not given)	-4.81%
Cc1ccc(CN(Cc2cc(=O)n3cccc(C)c3n2)C(C)C)o1	-14.3%
Cc1ncc2c(n1)CCN(Cc1ncc(C(C)(C)C)o1)C2	-11.4%
CC(=O)N(C)CC(=O)Nc1cc(C(F)(F)F)c[nH]c1=O	-12.8%
CCCC(NC(=O)c1cnccn1)c1nnc2ccccn12 (stereo not given)	-11%
CN(CCc1ccccn1)C(=O)Nc1cc(C(F)(F)F)c[nH]c1=O	8.07%
COc1cccc(N2CCN(C(=O)c3ccc(=O)n(C)c3)CC2)c1	-3.95%
Cn1cnc2c1CCN(c1ccnc(-c3ccccc3)n1)C2	-18.3%
Cc1nc(C(NC(=O)c2cc(C(C)C)[nH]n2)c2ccccc2)n[nH]1 (stereo not given)	-11.7%
CC(NC(=O)c1cc(C(C)C)[nH]n1)C(=O)Nc1ccccc1 (stereo not given)	-6.22%
Cc1ccc2c(c1C)OCC2NCc1cccc(C#N)c1 (stereo not given)	1.34%
Cc1cnn(-c2ccc(S(=O)(=O)N(C)CC(F)F)cc2F)c1	-8.45%
O=C(CCNc1ccc(Br)cn1)NCc1ccncc1	0.0133%
O=C(CCNc1ccc(Cl)cn1)NCc1ccncc1	-8.13%
CC(C)c1ncc(C(=O)N(C)c2ccc(Br)cn2)s1	5.45%
CCc1c(NCc2cccnc2)cnn1CC(C)C	-5.5%
CCOc1cccc(CNc2cnn(CC(C)C)c2CC)c1	-7.62%
CC(C)Oc1ccc(NCc2ccc([S+](C)[O-])cc2)c(F)c1 (stereo not given)	7.01%
CN(CC(=O)NCC(CCO)c1ccccc1)C(=O)OC(C)(C)C (stereo not given)	27.5%

Compound	cytotoxicity at 70.5 h
COc1cccc2c1N(CC(=O)Nc1ccc(Cl)cn1)CCC2	0.717%
CCn1cc(C(=O)NCC(C)(CC)N2CCOCC2)c2ccccc21 (stereo not given)	5.27%
CCCn1nc(C(=O)NCc2nnc3n2CCC3)ccc1=O	22.5%
CC(C)(C)NC(=O)c1cnc(C(C)(C)C)s1	3.79%
O=C1NCCCCC1NC(=O)C1(c2cccc(Cl)c2)CC1 (stereo not given)	-0.123%
CCn1cc(C(=O)NCC2(C(N)=O)CCOCC2)c2ccccc21	0.306%
CC(Oc1ccc(F)c(F)c1)C(=O)N(CC(N)=O)C1CCCC1 (stereo not given)	27.6%
O=C1NCCCCC1NC(=O)C1(c2ccccc2)CCOCC1 (stereo not given)	-1.6%
C=C(C)CN(CC)C(=O)c1cc(F)ccc1NS(C)(=O)=O	-0.0565%
C=C(C)CN(CC)C(=O)c1cc(C)ccc1NS(C)(=O)=O	3.16%
O=C(NCc1cccc(F)c1)c1cccc(C(=O)N2CCCC2)n1	3.72%
CCN(C)c1ccc(CNC(=O)CCn2cc(C)cn2)cc1F	-1.28%
O=C(OCCNc1ncccn1)c1ccc(Cl)s1	-3.07%
CN(Cc1nnc2n1CCC2)C(=O)c1ccc(=O)n(C)n1	4.72%
O=C(OCc1cccc(F)c1)c1cccc(C(=O)N2CCCC2)n1	-1.08%
COc1ccc(CCNC(=O)C2CCCOC2)c(Cl)c1 (stereo not given)	3.61%
Cc1cc(C)n(C2CCCN(C(=O)c3ccnc(N(C)C)c3)C2)n1 (stereo not given)	-0.851%
CN(CC(=O)N1CCCC(n2ccnc2)C1)c1cnccn1 (stereo not given)	-1.54%
Cc1nnc(CN2CCCC2c2ccc3c(c2)OCCCO3)n1C (stereo not given)	-5.99%
Cn1c(Cl)cnc1CN1CCCC1c1ccc2c(c1)OCCO2 (stereo not given)	19.4%
O=C1CCCCN1CCCNCc1cnc(C2CCC2)s1	0.195%
CC(CCN1CCCC1=O)NCc1cnc(C2CCC2)s1 (stereo not given)	-6.2%

Compound	cytotoxicity at 70.5 h
COc1cccc(-c2cc(NCc3nc(C)cs3)n(C)n2)c1	-9.85%
COc1cccc(-c2cc(NCc3nccn3C)n(C)n2)c1	-6.65%
Cc1nnc(C(C)N2CCN(Cc3noc(C(C)(C)C)n3)CC2)o1 (stereo not given)	-3.37%
COc1cc2c(cc1CNCc1cccnc1OC)OC(C)C2 (stereo not given)	-8.84%
Cc1cnn(C2CCCN(C(=O)c3cc[nH]n3)C2)c1 (stereo not given)	-5.43%
Cc1cnn(C2CCCN(C(=O)c3cc(-c4ccco4)[nH]n3)C2)c1 (stereo not given)	-11.8%
COc1ccc(S(=O)(=O)Nc2cccnc2-n2cncn2)c(C)c1	-8.45%
CC1CN(C)CCN1C(=O)c1cccn1Cc1cccs1 (stereo not given)	-8.42%
CCN(Cc1ccoc1)C(=O)Nc1ccccc1CN1CCOCC1	7.89%
CC(C)(C)CN(CCO)C(=O)Nc1cccc(N2CCNC2=O)c1	-4.71%
CC(C)(C)CN(CCC#N)C(=O)Nc1cccc(N2CCNC2=O)c1	-10.7%
COc1ccc(CCCC(=O)N2CCCC(n3cncn3)C2)cc1 (stereo not given)	-2.82%
COc1ccc(C2CCN(CCCC#N)CC2)cc1	27.7%
CNC(=O)c1sc(C(NC(=O)c2ccccc2)C2CC2)nc1C (stereo not given)	-4.95%
CCSc1cc(C(=O)NC(C)c2cccc(N3CCOC3=O)c2)ccn1 (stereo not given)	16.4%
CC(NC(=O)c1ccc2c(c1)COC2)c1cccc(N2CCOC2=O)c1 (stereo not given)	-0.257%
Cc1nc(CN(C)S(=O)(=O)c2ccc(F)cc2Br)no1	14.6%
Cc1c(F)cccc1S(=O)(=O)NC(C)(C)CN	-3.29%
CC(NCc1ccncc1)c1ccc(N2CCN(C)CC2)c(F)c1 (stereo not given)	4.11%
